Data as given in ChEMBL document CHEMBL4765475, “Tuning the Biological Activity of RGD Peptides with Halotryptophans†” (J Med Chem, 2021).
Active and inactive are the calls of the source. The calls are words filed in the database; no cut-off is given here.

How the values were obtained:
Integrin alpha-V/beta-3 [1] = biological target: T1, Integrin alpha-V/beta-3 (Homo sapiens, UniProt P05106+P06756); assay: Binding affinity to human integrin alphaVbeta3 incubated for 1 hr by ELISA based solid phase integrin binding assay; type: protein-complex assay
Integrin alpha-5/beta-1 = Integrin alpha-5/beta-1 (Homo sapiens, UniProt P05556+P08648); assay: Binding affinity to human integrin alpha5beta1 incubated for 1 hr by ELISA based solid phase integrin binding assay; type: protein-complex assay
[2] = Selectivity index, ratio of IC50 for binding affinity to human integrin alpha5beta1 to IC50 for binding affinity to human integrin alphaVbeta3
Integrin alpha-V/beta-6 = Integrin alpha-V/beta-6 (Homo sapiens, UniProt P06756+P18564); assay: Binding affinity to human integrin alphaVbeta6 incubated for 1 hr by ELISA based solid phase integrin binding assay; type: protein-complex assay
[3] = biological target: Integrin alpha-IIb/beta-3 (Homo sapiens, UniProt P05106+P08514); assay: Binding affinity to human integrin alpha2bbeta3 incubated for 1 hr by ELISA based solid phase integrin binding assay; type: protein complex
Integrin alpha-V/beta-8 = Integrin alpha-V/beta-8 (Homo sapiens, UniProt P06756+P26012); assay: Binding affinity to human integrin alphaVbeta8 incubated for 1 hr by ELISA based solid phase integrin binding assay; type: protein-complex assay
KB = assay: Cytotoxicity in human KB cells; type: functional, cell-based; details: for IC50: Homo sapiens, KB
Integrin alpha-V/beta-3 [4] = biological target: T1, Integrin alpha-V/beta-3; assay: Binding affinity to integrin alphaVbeta3 expressed in human M21 cells at 250 uM incubated for 30 mins by confocal microscopy; type: cell-based

Integrin alpha-5/beta-1, sequence (P05556 21-798 limits assumed): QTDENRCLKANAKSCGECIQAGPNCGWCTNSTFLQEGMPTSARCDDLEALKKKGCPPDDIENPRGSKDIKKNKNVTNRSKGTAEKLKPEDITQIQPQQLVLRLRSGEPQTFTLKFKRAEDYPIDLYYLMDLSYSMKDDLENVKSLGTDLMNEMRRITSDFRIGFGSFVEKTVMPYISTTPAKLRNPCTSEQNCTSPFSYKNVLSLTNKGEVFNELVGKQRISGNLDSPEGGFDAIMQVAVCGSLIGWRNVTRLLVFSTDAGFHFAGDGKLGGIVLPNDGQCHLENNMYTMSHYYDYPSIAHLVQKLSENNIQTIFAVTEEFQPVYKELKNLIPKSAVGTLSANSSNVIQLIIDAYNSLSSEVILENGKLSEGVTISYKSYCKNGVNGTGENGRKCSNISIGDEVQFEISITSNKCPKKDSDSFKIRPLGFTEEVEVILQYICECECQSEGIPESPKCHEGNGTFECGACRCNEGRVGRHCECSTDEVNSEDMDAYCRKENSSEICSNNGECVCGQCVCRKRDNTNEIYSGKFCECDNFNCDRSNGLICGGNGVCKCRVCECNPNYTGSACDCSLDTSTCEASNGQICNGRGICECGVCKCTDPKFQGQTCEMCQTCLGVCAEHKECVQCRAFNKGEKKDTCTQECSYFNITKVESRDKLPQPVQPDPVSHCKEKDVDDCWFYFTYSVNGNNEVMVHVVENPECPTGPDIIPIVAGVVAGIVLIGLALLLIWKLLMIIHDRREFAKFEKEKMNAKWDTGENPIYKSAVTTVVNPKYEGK
Integrin alpha-5/beta-1, sequence (P08648 42-894 limits assumed): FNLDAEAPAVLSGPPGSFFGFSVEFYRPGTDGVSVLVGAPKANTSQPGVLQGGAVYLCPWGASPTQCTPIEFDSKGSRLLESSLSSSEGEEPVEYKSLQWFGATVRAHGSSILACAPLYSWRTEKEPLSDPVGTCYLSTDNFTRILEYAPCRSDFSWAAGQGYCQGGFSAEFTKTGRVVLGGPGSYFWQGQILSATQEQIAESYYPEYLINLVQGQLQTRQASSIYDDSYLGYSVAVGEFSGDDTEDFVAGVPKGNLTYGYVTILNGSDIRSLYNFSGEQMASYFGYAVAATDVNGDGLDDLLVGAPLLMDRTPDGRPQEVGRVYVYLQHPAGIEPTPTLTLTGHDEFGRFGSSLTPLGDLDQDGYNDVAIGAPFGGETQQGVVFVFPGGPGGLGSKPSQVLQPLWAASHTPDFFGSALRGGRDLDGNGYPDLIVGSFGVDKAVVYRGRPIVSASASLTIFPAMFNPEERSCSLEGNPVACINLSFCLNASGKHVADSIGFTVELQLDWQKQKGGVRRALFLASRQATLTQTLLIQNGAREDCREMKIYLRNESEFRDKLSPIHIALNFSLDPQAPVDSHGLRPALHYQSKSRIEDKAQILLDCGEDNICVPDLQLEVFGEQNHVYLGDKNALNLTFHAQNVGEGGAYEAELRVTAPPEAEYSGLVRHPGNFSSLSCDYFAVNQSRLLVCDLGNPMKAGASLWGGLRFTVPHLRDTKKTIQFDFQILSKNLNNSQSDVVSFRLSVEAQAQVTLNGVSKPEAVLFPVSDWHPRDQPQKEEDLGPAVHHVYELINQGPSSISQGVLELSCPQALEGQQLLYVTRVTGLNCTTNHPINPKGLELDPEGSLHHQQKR
Integrin alpha-5/beta-1, sequence (P08648 895-1049 limits assumed): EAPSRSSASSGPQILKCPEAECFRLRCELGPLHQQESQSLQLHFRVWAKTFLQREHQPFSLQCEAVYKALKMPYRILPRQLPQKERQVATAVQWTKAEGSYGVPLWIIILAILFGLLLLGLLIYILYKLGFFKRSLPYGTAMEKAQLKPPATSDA
Integrin alpha-V/beta-8, sequence (P06756 31-889 limits assumed): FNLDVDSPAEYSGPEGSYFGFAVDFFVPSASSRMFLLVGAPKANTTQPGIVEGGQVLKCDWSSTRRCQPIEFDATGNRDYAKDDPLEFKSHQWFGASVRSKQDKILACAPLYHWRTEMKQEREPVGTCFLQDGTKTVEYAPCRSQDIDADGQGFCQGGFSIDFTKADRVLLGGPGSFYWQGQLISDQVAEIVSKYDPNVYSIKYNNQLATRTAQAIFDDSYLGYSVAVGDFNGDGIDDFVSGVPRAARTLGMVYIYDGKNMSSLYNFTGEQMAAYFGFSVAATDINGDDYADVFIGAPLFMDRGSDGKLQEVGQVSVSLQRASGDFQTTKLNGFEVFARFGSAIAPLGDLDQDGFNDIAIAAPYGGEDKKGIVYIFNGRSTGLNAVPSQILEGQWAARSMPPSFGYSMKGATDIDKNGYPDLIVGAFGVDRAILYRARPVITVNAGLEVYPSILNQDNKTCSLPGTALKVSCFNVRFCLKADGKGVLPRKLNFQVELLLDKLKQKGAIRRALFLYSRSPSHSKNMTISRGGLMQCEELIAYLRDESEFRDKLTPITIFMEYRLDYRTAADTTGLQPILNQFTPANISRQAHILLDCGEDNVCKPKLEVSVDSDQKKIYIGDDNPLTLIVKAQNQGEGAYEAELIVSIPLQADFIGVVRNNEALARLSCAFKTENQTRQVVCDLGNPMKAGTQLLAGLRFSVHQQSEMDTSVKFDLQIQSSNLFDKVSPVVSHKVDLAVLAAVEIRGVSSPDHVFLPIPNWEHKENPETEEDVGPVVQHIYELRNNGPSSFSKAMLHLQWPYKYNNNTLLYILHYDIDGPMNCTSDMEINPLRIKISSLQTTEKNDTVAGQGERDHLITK
Integrin alpha-V/beta-8, sequence (P06756 891-1048 limits assumed): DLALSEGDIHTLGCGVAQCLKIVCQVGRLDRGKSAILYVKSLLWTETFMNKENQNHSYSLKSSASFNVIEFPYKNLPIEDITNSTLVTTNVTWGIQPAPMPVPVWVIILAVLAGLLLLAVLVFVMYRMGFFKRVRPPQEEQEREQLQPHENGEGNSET
Integrin alpha-V/beta-8, sequence (P26012 43-769 limits assumed): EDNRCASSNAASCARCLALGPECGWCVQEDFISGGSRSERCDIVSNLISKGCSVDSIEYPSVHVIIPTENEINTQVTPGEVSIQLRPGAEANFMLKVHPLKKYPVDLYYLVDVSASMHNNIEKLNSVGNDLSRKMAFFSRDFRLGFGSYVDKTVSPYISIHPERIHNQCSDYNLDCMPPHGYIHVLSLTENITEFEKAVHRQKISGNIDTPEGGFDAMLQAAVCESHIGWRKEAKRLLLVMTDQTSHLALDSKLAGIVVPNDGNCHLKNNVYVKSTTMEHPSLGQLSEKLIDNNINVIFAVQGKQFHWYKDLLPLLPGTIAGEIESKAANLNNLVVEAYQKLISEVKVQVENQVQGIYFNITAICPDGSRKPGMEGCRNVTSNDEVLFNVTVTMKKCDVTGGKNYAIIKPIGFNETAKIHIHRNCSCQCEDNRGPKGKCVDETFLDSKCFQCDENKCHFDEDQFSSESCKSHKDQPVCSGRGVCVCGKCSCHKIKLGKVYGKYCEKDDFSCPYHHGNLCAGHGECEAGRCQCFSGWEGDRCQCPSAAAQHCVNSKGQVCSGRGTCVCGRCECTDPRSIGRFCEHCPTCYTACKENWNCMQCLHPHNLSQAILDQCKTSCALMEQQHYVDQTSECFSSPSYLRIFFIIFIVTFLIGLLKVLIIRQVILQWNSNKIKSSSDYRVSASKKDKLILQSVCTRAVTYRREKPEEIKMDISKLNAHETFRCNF
Integrin alpha-V/beta-6, sequence (P06756 31-889 limits assumed): as the sequence (P06756 31-889 limits assumed) above
Integrin alpha-V/beta-6, sequence (P06756 891-1048 limits assumed): as the sequence (P06756 891-1048 limits assumed) above
Integrin alpha-V/beta-6, sequence (P18564 22-788 limits assumed): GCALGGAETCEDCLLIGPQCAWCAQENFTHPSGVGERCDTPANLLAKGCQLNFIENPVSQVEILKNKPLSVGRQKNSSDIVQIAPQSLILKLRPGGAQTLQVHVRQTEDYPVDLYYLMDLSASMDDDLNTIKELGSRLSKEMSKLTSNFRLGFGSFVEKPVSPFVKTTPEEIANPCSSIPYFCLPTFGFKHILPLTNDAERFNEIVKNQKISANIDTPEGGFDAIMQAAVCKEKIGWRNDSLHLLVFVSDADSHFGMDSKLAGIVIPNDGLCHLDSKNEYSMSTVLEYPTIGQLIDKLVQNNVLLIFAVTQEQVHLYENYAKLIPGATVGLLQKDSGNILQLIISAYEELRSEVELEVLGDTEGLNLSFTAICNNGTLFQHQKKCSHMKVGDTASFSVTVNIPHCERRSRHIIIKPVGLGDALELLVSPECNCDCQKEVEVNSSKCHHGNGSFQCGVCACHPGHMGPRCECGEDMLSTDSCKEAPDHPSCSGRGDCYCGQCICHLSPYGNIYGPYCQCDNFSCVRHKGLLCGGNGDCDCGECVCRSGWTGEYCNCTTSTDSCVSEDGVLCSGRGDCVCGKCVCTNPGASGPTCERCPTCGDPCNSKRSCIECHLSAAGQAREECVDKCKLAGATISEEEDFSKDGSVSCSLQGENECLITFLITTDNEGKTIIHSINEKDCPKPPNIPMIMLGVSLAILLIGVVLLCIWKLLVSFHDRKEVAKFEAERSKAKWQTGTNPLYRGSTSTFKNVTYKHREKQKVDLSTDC

IC50 (Integrin alpha-V/beta-3 [1]) [nM] | IC50 (Integrin alpha-5/beta-1) [nM] | Ratio IC50 [2] | SMILES | also measured
311 | > 10000 | – | CC(C)[C@@H]1C(=O)N[C@@H](CCCNC(=N)N)C(=O)NCC(=O)N[C@@H](CC(=O)O)C(=O)N[C@@H](Cc2c[nH]c3c(Br)cccc23)C(=O)N1C | –
0.43 | 49.2 | 114 | CC(C)[C@@H]1NC(=O)[C@@H](Cc2c[nH]c3c(I)cccc23)NC(=O)[C@H](CC(=O)O)NC(=O)CNC(=O)[C@H](CCCNC(=N)N)NC1=O | –
0.52 | 610 | 1170 | CC(C)[C@@H]1NC(=O)[C@@H](Cc2c[nH]c3c(-c4cccc(N)c4)cccc23)NC(=O)[C@H](CC(=O)O)NC(=O)CNC(=O)[C@H](CCCNC(=N)N)NC1=O | IC50 (Integrin alpha-V/beta-6): 36 nM; IC50 [3]: > 10000 nM; IC50 (Integrin alpha-V/beta-8): 220 nM
0.24 | 39.1 | 163 | CC(C)[C@@H]1NC(=O)[C@@H](Cc2c[nH]c3cc(Cl)ccc23)NC(=O)[C@H](CC(=O)O)NC(=O)CNC(=O)[C@H](CCCNC(=N)N)NC1=O | –
0.62 | 74.3 | 120 | CC(C)[C@@H]1NC(=O)[C@@H](Cc2c[nH]c3c(Br)cccc23)NC(=O)[C@H](CC(=O)O)NC(=O)CNC(=O)[C@H](CCCNC(=N)N)NC1=O | –
– | – | – | O=[N+]([O-])/C=C1\NCCN1Cc1cccnc1 | LC90 (KB): 8 ppm
0.34 | 91.3 | 269 | CC(C)[C@@H]1NC(=O)[C@@H](Cc2c[nH]c3c(Cl)cccc23)NC(=O)[C@H](CC(=O)O)NC(=O)CNC(=O)[C@H](CCCNC(=N)N)NC1=O | –
0.74 | 66 | 89 | COc1ccc(-c2cccc3c(C[C@H]4NC(=O)[C@H](CC(=O)O)NC(=O)CNC(=O)[C@H](CCCNC(=N)N)NC(=O)[C@H](C(C)C)NC4=O)c[nH]c23)cc1 | IC50 (Integrin alpha-V/beta-6): 50 nM; IC50 [3]: > 10000 nM; IC50 (Integrin alpha-V/beta-8): 76.5 nM
0.53 | 43.3 | 82 | CC(C)[C@@H]1NC(=O)[C@@H](Cc2c[nH]c3cc(Br)ccc23)NC(=O)[C@H](CC(=O)O)NC(=O)CNC(=O)[C@H](CCCNC(=N)N)NC1=O | –
– | – | – | COc1ccc(C[C@H]2NC(=O)/C=C/C[C@@H]([C@H](C)[C@@H]3O[C@H]3c3ccccc3)OC(=O)[C@H](CC(C)C)OC(=O)C(C)(C)CNC2=O)cc1 | IC50 (KB): 0.073 nM
1.15 | 9.9 | 8.6 | CC(C)[C@@H]1NC(=O)[C@@H](Cc2c[nH]c3ccccc23)NC(=O)[C@H](CC(=O)O)NC(=O)CNC(=O)[C@H](CCCNC(=N)N)NC1=O | –
– | – | – | O=[N+]([O-])/C=C1\NCCN1Cc1ccc(Cl)nc1 | LC90 (KB): 0.32 ppm
– | – | – | O=[N+]([O-])/C=C1\NCCN1Cc1ccc(F)nc1 | LC90 (KB): 0.32 ppm
– | – | – | COc1ccc(C[C@H]2NC(=O)/C=C/C[C@@H]([C@H](C)[C@@H]3O[C@H]3c3ccccc3)OC(=O)[C@H](CC(C)C)OC(=O)C(C)(C)CNC2=O)cc1Cl | IC50 (KB): 0.009 nM
0.59 | 471 | 798 | CC(C)[C@@H]1NC(=O)[C@@H](Cc2c[nH]c3c(-c4c5ccccc5cc5ccccc45)cccc23)NC(=O)[C@H](CC(=O)O)NC(=O)CNC(=O)[C@H](CCCNC(=N)N)NC1=O | IC50 (Integrin alpha-V/beta-6): 32 nM; IC50 [3]: > 10000 nM; IC50 (Integrin alpha-V/beta-8): 193 nM
0.35 | 58.3 | 167 | CC(C)[C@@H]1NC(=O)[C@@H](Cc2c[nH]c3c(F)cccc23)NC(=O)[C@H](CC(=O)O)NC(=O)CNC(=O)[C@H](CCCNC(=N)N)NC1=O | –
0.52 | 22 | 42 | CC(C)[C@@H]1NC(=O)[C@@H](Cc2c[nH]c3c(-c4ccc(C(=O)O)cc4)cccc23)NC(=O)[C@H](CC(=O)O)NC(=O)CNC(=O)[C@H](CCCNC(=N)N)NC1=O | IC50 (Integrin alpha-V/beta-6): 54 nM; IC50 [3]: > 10000 nM; IC50 (Integrin alpha-V/beta-8): 39.2 nM
– | – | – | O=[N+]([O-])/C=C1\NCCN1Cc1ccc(Br)nc1 | LC90 (KB): 1.6 ppm
1.37 | 10.2 | 7.4 | CC(C)[C@H]1C(=O)N[C@@H](CCCNC(=N)N)C(=O)NCC(=O)N[C@@H](CC(=O)O)C(=O)N[C@H](Cc2c[nH]c3c(Br)cccc23)C(=O)N1C | –
0.53 | 472 | 891 | CC(C)[C@H]1NC(=O)[C@H](Cc2c[nH]c3c(Br)cccc23)NC(=O)[C@H](CC(=O)O)NC(=O)CNC(=O)[C@H](CCCNC(=N)N)NC1=O | –

SMILES | IC50 (Integrin alpha-V/beta-3 [1]) [nM] | IC50 (Integrin alpha-5/beta-1) [nM] | Ratio IC50 [2] | also measured
CC(C)[C@@H]1NC(=O)[C@@H](Cc2c[nH]c3c(-c4ccc5ccc6cccc7ccc4c5c67)cccc23)NC(=O)[C@H](CC(=O)O)NC(=O)CNC(=O)[C@H](CCCNC(=N)N)NC1=O | – | – | 407 | IC50 (Integrin alpha-V/beta-6): 299 nM; Activity (Integrin alpha-V/beta-3 [4]): Active; IC50 [3]: > 10000 nM; IC50 (Integrin alpha-V/beta-8): 1010 nM
